Experimental data taken from US6716858B1, “Methods for inhibiting diabetic complications” (Kansas University Medical Center, priority 1995, dated 2004).

Key:
[1] = tested on: AGE formation during uninterrupted glycation of bovine serum albumin (BSA) by ribose; assay: Uninterrupted ribose glycation assay, BSA; assay type: biochemical; details: 0.05 M ribose, 6 weeks, inhibitors 0.5-50 mM
Experimental: (§1) ELISA detection of AGE products. The general method of Engvall (1981, Methods Enzymol. 70:419-439) was used to perform the ELISA. Typically, glycated protein samples were diluted to approximately 1.5 ug/ml in 0.1 M sodium carbonate buffer of pH 9.5 to 9.7. The protein was coated overnight at room temperature onto 96-well polystyrene plates by pippetting 200 ul of the protein solution in each well (0.3 ug/well). After coating, the protein was washed from the wells with a saline solution containing 0.05% Tween-20. The wells were then blocked with 200 ul of 1% casein in carbonate buffer for 2 h at 37° C. followed by washing. Rabbit anti-AGE antibodies were diluted at a titer of about 1:350 in incubation buffer, and incubated for 1 h at 37° C., followed by washing. In order to minimize background readings, antibodies R479 used to detect glycated RNase were raised against glycated BSA, and antibodies R618 used to detect glycated BSA and glycated Hb were raised against glycated RNase. An alkaline phosphatase-conjugated antibody to rabbit IgG was then added as the secondary antibody at a titer of 1:2000 or 1:2500 (depending on lot) and incubated for 1 h at 37° C., followed by washing. The p-nitrophenylphosphate substrate solution was then added (200 ul/well) to the plates, with the absorbance of the released p-nitrophenolate being monitored at 410 nm with a Dynatech MR 4000 microplate reader.
(§2) Uninterrupted ribose glycation assays Bovine serum albumin, ribonuclease A, and human hemoglobin were incubated with ribose at 37° C. in 0.4 M sodium phosphate buffer of pH 7.5 containing 0.02% sodium azide. The protein (10 mg/ml or 1 mg/ml), 0.05 M ribose, and prospective inhibitors (at 0.5, 3, 15 and 50 mM) were introduced into the incubation mixture simultaneously. Solutions were kept in the dark in capped tubes. Aliquots were taken and immediately frozen until analyzed by ELISA at the conclusion of the reaction. The incubations were for 3 weeks (Hb) or 6 weeks (RNase, BSA). Glycation reactions were monitored for constant pH throughout the duration of the experiments.

[2] = tested on: AGE formation in bovine serum albumin (BSA); assay: Uninterrupted glycation of BSA with glucose, anti-AGE ELISA; assay type: biochemical; details: BSA 10 mg/ml, 1.0 M glucose, pH 7.5, 37° C., 6 weeks; inhibitors 3, 15 and 50 mM
Experimental: as §2, with “Glycation with Glucose” for “ribose glycation assays”, “glucose” for “ribose”, “protein, glucose (at 1.0 M),” for “protein (10 mg/ml or 1 mg/ml), 0.05 M ribose,”, “BSA).” for “BSA). Glycation reactions were monitored for constant pH throughout the duration of the experiments.”
as §1
FIGS. 1 A-D are graphs which show the effect of vitamin B6 derivatives on post-Amadori AGE formation in bovine serum albumin glycated with glucose. BSA (10 mg/ml) was incubated with 1.0 M glucose in the presence and absence of the various indicated derivative in 0.4 M sodium phosphate buffer of pH 7.5 at 37° C. for 6 weeks. Aliquots were assayed by ELISA using R618 anti-AGE antibodies. Concentrations of the inhibitors were 3, 15 and 50 mM. Inhibitors used in FIGS. (1A) Pyridoxamine (PM); (1B) pyridoxal phosphate (PLP); (1C) pyridoxal (PL); (1D) pyridoxine (PN).
FIGS. 2A-D are graphs which show the effect of vitamin B1 derivatives and aminoguanidine (AG) on AGE formation in bovine serum albumin. BSA (10 mg/ml) was incubated with 1.0 M glucose in the presence and absence of the various indicated derivative in 0.4 M sodium phosphate buffer of pH 7.5 at 37° C. for 6 weeks. Aliquots were assayed by ELISA using R618 anti-AGE antibodies. Concentrations of the inhibitors were 3, 15 and 50 mM. Inhibitors used in FIGS. (2A) Thiamine pyrophosphate (TPP); (2B) thiamine monophosphate (TP); (2C) thiamine (T); (2D) aminoguanidine (AG).

ribose-treated rats = assay: Ribose rat model, intervention by compounds (Phase III); assay type: in vivo; details: for Albumin effusion rate (AER): absence of ribose, pyridoxamine and TPP 250 mg/kg, aminoguanidine 25 mg/kg
Experimental: Sixty rats were randomized into 9 different groups, including those exposed to 1 M ribose for 8 days in the presence and absence of aminoguanidine, pyridoxamine, and thiamine pyrophosphate as follows:
(ii) high dose (250 mg/kg body weight) of pyridoxamine (“compound-P”);
(iii) high dose (250 mg/kg body weight of thiamine pyrophosphate (“compound-T” or “TPP”); and
(iv) low dose (25 mg/kg body weight) of aminoguanidine (“AG”).
(i) only 1 M ribose-saline (2×9 cc daily IP for 8 days);
(ii) ribose plus low dose (“LP”) of pyridoxamine (25 mg/kg body weight injected as 0.5 ml with 9 cc ribose);
(iii) ribose plus high dose (“HP”) of pyridoxamine (250 mg/kg body weight injected as 0.5 ml with 9 cc ribose);
(iv) ribose plus high dose (“HT”) of thiamine pyrophosphate (250 mg/kg body weight injected as 0.5 ml with 9 cc ribose); and
(v) ribose plus low dose of amino guanidine (25 mg/kg body weight injected as 0.5 ml with 9 cc ribose).
Unlike Phase II, no ribose was administered in drinking water. Intervention compounds were pre-administered for one day prior to introducing them with ribose.

[3] = tested on: AGE formation during uninterrupted glycation of ribonuclease A (RNase A) by ribose; assay: Uninterrupted ribose glycation assay, RNase; assay type: biochemical, bovine; details: continuous 0.05 M ribose, 6 weeks, inhibitors 0.5-50 mM
Experimental: as §1, §2
The inhibitory effects of vitamin B1 and B6 derivatives on the kinetics of antigenic AGE formation were evaluated by polyclonal antibodies specific for AGEs. Initial inhibition studies were carried out on the glycation of bovine ribonuclease A (RNase) in the continuous presence of 0.05 M ribose, which is the concentration of ribose where the rate of AGE formation is near maximal.

[4] = co-administered with 1 M ribose, low dose 25 mg/kg
[5] = co-administered with 1 M ribose, 250 mg/kg
[6] = compound alone, 250 mg/kg, no ribose

| Structure (SMILES) | inhibition of overall kinetics of AGE formation from ribose [1] | inhibition of antigenic AGE formation (ELISA) [2] | Albumin effusion rate (AER) (ribose-treated rats) | Albumin effusion rate (ribose-treated rats; [4]) | creatinine clearance (ribose-treated rats; [4]) | inhibition of overall kinetics of AGE formation from ribose [3] | creatinine clearance (ribose-treated rats; [5]) | creatinine clearance (ribose-treated rats; [6]) |
| --- | --- | --- | --- | --- | --- | --- | --- | --- |
| N=C(N)NN [aminoguanidine, reference compound] | appearing to slow the rate of AGE formation without significantly affecting the final levels of AGE formed | produced some inhibition of AGE formation in BSA, but less so than the above compounds | elevated | restored to normal | normalized | decreased the rate of AGE formation on RNase, but did not reduce the final level of AGE formed | – | – |
| Cc1ncc(CO)c(CN)c1O [pyridoxamine] | exhibited some inhibition at lower concentrations, and at the highest concentration tested appeared to inhibit the final levels of AGE formed more effectively than any of the other B6 derivatives | strongly suppressed antigenic AGE formation at even the lowest concentrations tested | elevated | restored to normal | normalized | best inhibitor of the “final” levels of AGE formed on RNase | only partial protection against the ribose-induced decrease in creatinine clearance | but not pyridoxamine, appeared to decrease creatinine clearance |
| Cc1ncc(C[n+]2csc(CCO[P@](=O)(O)OP(=O)(O)O)c2C)c(N)n1 [thiamine pyrophosphate] | inhibited the final levels of AGEs formed, without greatly affecting the rate of AGE formation | effective at all concentrations tested | elevated | – | – | both the rate of AGE formation and the final levels of AGE produced at the plateau appeared diminished | only partial protection against the ribose-induced decrease in creatinine clearance | diminished it |
